This is an account of results in the OligoGym collection.

The data set deals with UBE3A-ATS. The data set can be described thus: mouse, dose not given. The following applies: ASO.

HELM strings list units from the 5' end as sugar, base in round brackets, then linkage (d deoxyribose, r ribose, m 2'-O-methyl, p phosphodiester). Strings are as the collection lists them; they lack the last nucleoside at the 3' end of the tested compound. [moe] = 2'-O-(2-methoxyethyl) (MOE); [sp] = phosphorothioate linkage; [m5C] = 5-methylcytosine

For the substance “RNA1{[moe](G)[sp].[moe](T)p.[moe](A)p.[moe]([m5C])p.[moe](T)p.d([m5C])[sp].d(A)[sp].d(T)[sp].d([m5C])[sp].d(A)[sp].d(T)[sp].d(G)[sp].d(A)[sp].d(T)[sp].d([m5C])[sp].[moe](T)p.[moe](T)p.[moe](G)[sp].[moe](G)}$$$$ (last 3' nucleoside missing)”, the 3 h FOB score came to 2 score 0-7. In turn, “RNA1{[moe](G)[sp].[moe](T)p.[moe](G)p.[moe](A)[sp].d(G)[sp].d([m5C])[sp].d(T)[sp].d(A)[sp].d(T)[sp].d([m5C])[sp].d(T)[sp].d(G)[sp].[moe](T)p.[moe](A)p.[moe]([m5C])p.[moe](A)[sp].[moe](A)}$$$$ (last 3' nucleoside missing)” registered a 3 h FOB score of 1.7 score 0-7. For the substance “RNA1{[moe](G)[sp].[moe](T)p.[moe](G)p.[moe](A)p.[moe](G)[sp].d([m5C])[sp].d(T)[sp].d(A)[sp].d(T)[sp].d([m5C])[sp].d(T)[sp].d(G)[sp].d(T)[sp].[moe](A)p.[moe]([m5C])p.[moe](A)[sp].[moe](A)}$$$$ (last 3' nucleoside missing)”, the 3 h FOB score was 1 score 0-7. In the case of “RNA1{[moe](G)[sp].[moe](T)p.[moe](G)p.[moe](A)p.[moe](G)p.[moe]([m5C])[sp].d(T)[sp].d(A)[sp].d(T)[sp].d([m5C])[sp].d(T)[sp].d(G)[sp].d(T)[sp].d(A)[sp].[moe]([m5C])p.[moe](A)[sp].[moe](A)}$$$$ (last 3' nucleoside missing)”, the 3 h FOB score was found to be 4.7 score 0-7.

In turn, “RNA1{[moe](G)[sp].[moe](T)p.[moe](G)p.[moe](A)p.[moe](G)p.[moe]([m5C])p.d(T)[sp].d(A)[sp].d(T)[sp].d([m5C])[sp].d(T)[sp].d(G)[sp].d(T)[sp].d(A)[sp].d([m5C])[sp].d(A)[sp].[moe](A)p.[moe](A)[sp].[moe](A)}$$$$ (last 3' nucleoside missing)” registered a 3 h FOB score of 1.3 score 0-7.

In turn, “RNA1{[moe](G)[sp].[moe](T)p.[moe](G)p.[moe](A)p.[moe](G)p.d([m5C])[sp].d(T)[sp].d(A)[sp].d(T)[sp].d([m5C])[sp].d(T)[sp].d(G)[sp].d(T)[sp].d(A)[sp].d([m5C])[sp].[moe](A)p.[moe](A)p.[moe](A)[sp].[moe](A)}$$$$ (last 3' nucleoside missing)” came in with a 3 h FOB score of 3.2 score 0-7. Next, “RNA1{[moe](G)[sp].[moe](T)p.[moe](G)p.[moe](A)p.[moe](G)p.d([m5C])[sp].d(T)[sp].d(T)[sp].d(T)[sp].d(A)[sp].d([m5C])[sp].d(T)[sp].d([m5C])[sp].d(T)[sp].d(G)[sp].[moe]([m5C])p.[moe](A)p.[moe](A)[sp].[moe](T)}$$$$ (last 3' nucleoside missing)”: 1 score 0-7; “RNA1{[moe](G)[sp].[moe](T)p.[moe](G)p.[moe](A)p.d(G)[sp].d([m5C])[sp].d(T)[sp].d(A)[sp].d(T)[sp].d([m5C])[sp].d(T)[sp].d(G)[sp].d(T)[sp].d(A)[sp].[moe]([m5C])p.[moe](A)p.[moe](A)p.[moe](A)[sp].[moe](A)}$$$$ (last 3' nucleoside missing)”: 4 score 0-7; “RNA1{[moe](G)[sp].[moe](T)p.[moe](G)p.[moe](G)p.[moe](T)p.d(T)[sp].d(G)[sp].d([m5C])[sp].d([m5C])[sp].d(T)[sp].d(T)[sp].d(A)[sp].d(G)[sp].d(T)[sp].d(A)[sp].[moe](T)p.[moe](T)p.[moe](A)[sp].[moe]([m5C])}$$$$ (last 3' nucleoside missing)”: 2.2 score 0-7.

“RNA1{[moe](G)[sp].[moe](T)p.[moe](G)p.[moe](G)p.[moe](T)p.d(T)[sp].d(T)[sp].d([m5C])[sp].d([m5C])[sp].d(A)[sp].d(G)[sp].d([m5C])[sp].d(A)[sp].d(G)[sp].d(G)[sp].[moe](G)p.[moe](T)p.[moe](G)[sp].[moe](T)}$$$$ (last 3' nucleoside missing)” displayed a 3 h FOB score of 5.8 score 0-7.

Regarding “RNA1{[moe](G)[sp].[moe](T)p.[moe](G)p.[moe](G)p.[moe](T)p.d([m5C])[sp].d(A)[sp].d(G)[sp].d(A)[sp].d(T)[sp].d(T)[sp].d([m5C])[sp].d([m5C])[sp].d(T)[sp].d(A)[sp].[moe](A)p.[moe](A)p.[moe](T)[sp].[moe](A)}$$$$ (last 3' nucleoside missing)”, the 3 h FOB score stood at 0 score 0-7. With “RNA1{[moe](G)[sp].[moe](T)p.[moe](G)p.[moe](T)p.[moe](G)p.[moe](T)p.d(T)[sp].d(T)[sp].d(T)[sp].d(T)[sp].d([m5C])[sp].d([m5C])[sp].d(A)[sp].d(T)[sp].d(T)[sp].d(T)[sp].[moe](T)p.[moe](T)[sp].[moe]([m5C])}$$$$ (last 3' nucleoside missing)”, the 3 h FOB score amounted to 0 score 0-7. On to “RNA1{[moe](G)[sp].[moe](T)p.[moe](G)p.[moe](T)p.[moe](G)p.d(G)[sp].d(A)[sp].d(T)[sp].d(G)[sp].d(G)[sp].d(T)[sp].d(A)[sp].d(T)[sp].d([m5C])[sp].d([m5C])[sp].[moe](T)p.[moe](G)p.[moe](G)[sp].[moe](T)}$$$$ (last 3' nucleoside missing)”, for which the 3 h FOB score is 5.5 score 0-7. With “RNA1{[moe](G)[sp].[moe](T)p.[moe](G)p.[moe](T)p.[moe](G)p.d(T)[sp].d(G)[sp].d([m5C])[sp].d(A)[sp].d(A)[sp].d(T)[sp].d(A)[sp].d(G)[sp].d([m5C])[sp].d([m5C])[sp].[moe](T)p.[moe](A)p.[moe](A)[sp].[moe](A)}$$$$ (last 3' nucleoside missing)”, the 3 h FOB score stood at 3.5 score 0-7. Substance “RNA1{[moe](G)[sp].[moe](T)p.[moe](G)p.[moe](T)p.[moe](G)p.d(T)[sp].d(T)[sp].d(T)[sp].d(T)[sp].d(T)[sp].d([m5C])[sp].d([m5C])[sp].d(A)[sp].d(T)[sp].d(T)[sp].[moe](T)p.[moe](T)p.[moe](T)[sp].[moe]([m5C])}$$$$ (last 3' nucleoside missing)” returned a 3 h FOB score of 0 score 0-7.

Take “RNA1{[moe](G)[sp].[moe](T)p.[moe](G)p.[moe](T)p.[moe](G)p.d([m5C])[sp].d([m5C])[sp].d(A)[sp].d(T)[sp].d(A)[sp].d(G)[sp].d(G)[sp].d(T)[sp].d(T)[sp].d(T)[sp].[moe]([m5C])p.[moe](A)p.[moe](G)[sp].[moe](G)}$$$$ (last 3' nucleoside missing)”: the 3 h FOB score turned out to be 2.8 score 0-7. Substance “RNA1{[moe](G)[sp].[moe](T)p.[moe](G)p.[moe](T)p.[moe](T)p.[moe](T)p.d(T)[sp].d(T)[sp].d([m5C])[sp].d([m5C])[sp].d(A)[sp].d(T)[sp].d(T)[sp].d(T)[sp].d(T)[sp].d(T)[sp].[moe]([m5C])p.[moe](T)[sp].[moe]([m5C])}$$$$ (last 3' nucleoside missing)” registered a 3 h FOB score of 0 score 0-7.

“RNA1{[moe](G)[sp].[moe](T)p.[moe](G)p.[moe](T)p.[moe](T)p.d(T)[sp].d(A)[sp].d(T)[sp].d([m5C])[sp].d([m5C])[sp].d(A)[sp].d(A)[sp].d(A)[sp].d([m5C])[sp].d([m5C])[sp].[moe](A)p.[moe](A)p.[moe](G)[sp].[moe](G)}$$$$ (last 3' nucleoside missing)” yielded a 3 h FOB score of 3 score 0-7.

“RNA1{[moe](G)[sp].[moe](T)p.[moe](G)p.[moe](T)p.[moe](T)p.d(T)[sp].d(T)[sp].d(T)[sp].d([m5C])[sp].d([m5C])[sp].d(A)[sp].d(T)[sp].d(T)[sp].d(T)[sp].d(T)[sp].[moe](T)p.[moe]([m5C])p.[moe](T)[sp].[moe]([m5C])}$$$$ (last 3' nucleoside missing)” had a 3 h FOB score of 0 score 0-7.

“RNA1{[moe](G)[sp].[moe](T)p.[moe](G)p.[moe](T)p.[moe]([m5C])p.d(A)[sp].d(T)[sp].d(A)[sp].d(T)[sp].d(G)[sp].d(T)[sp].d(A)[sp].d(G)[sp].d([m5C])[sp].d(A)[sp].[moe](A)p.[moe](T)p.[moe](T)[sp].[moe](A)}$$$$ (last 3' nucleoside missing)” yielded a 3 h FOB score of 6.5 score 0-7. Next, “RNA1{[moe](G)[sp].[moe](T)p.[moe](G)p.[moe](T)p.d(G)[sp].d(T)[sp].d(T)[sp].d(T)[sp].d(T)[sp].d(T)[sp].d([m5C])[sp].d([m5C])[sp].d(A)[sp].d(T)[sp].[moe](T)p.[moe](T)p.[moe](T)p.[moe](T)[sp].[moe]([m5C])}$$$$ (last 3' nucleoside missing)”: 0 score 0-7; “RNA1{[moe](G)[sp].[moe](T)p.[moe](G)p.[moe](T)p.d(T)[sp].d(T)[sp].d(T)[sp].d(T)[sp].d([m5C])[sp].d([m5C])[sp].d(A)[sp].d(T)[sp].d(T)[sp].d(T)[sp].[moe](T)p.[moe](T)p.[moe]([m5C])p.[moe](T)[sp].[moe]([m5C])}$$$$ (last 3' nucleoside missing)”: 0 score 0-7; “RNA1{[moe](G)[sp].[moe](T)p.[moe](G)p.[moe]([m5C])[sp].d(A)[sp].d(T)[sp].d(A)[sp].d([m5C])[sp].d([m5C])[sp].d([m5C])[sp].d(A)[sp].d(G)[sp].[moe](G)p.[moe](G)p.[moe](T)p.[moe](A)[sp].[moe](G)}$$$$ (last 3' nucleoside missing)”: 1 score 0-7. Next, “RNA1{[moe](G)[sp].[moe](T)p.[moe](G)p.[moe]([m5C])p.[moe](A)[sp].d(T)[sp].d(A)[sp].d([m5C])[sp].d([m5C])[sp].d([m5C])[sp].d(A)[sp].d(G)[sp].d(G)[sp].[moe](G)p.[moe](T)p.[moe](A)[sp].[moe](G)}$$$$ (last 3' nucleoside missing)”: 5.5 score 0-7; “RNA1{[moe](G)[sp].[moe](T)p.[moe](G)p.[moe]([m5C])p.[moe](A)p.[moe](T)[sp].d(A)[sp].d([m5C])[sp].d([m5C])[sp].d([m5C])[sp].d(A)[sp].d(G)[sp].d(G)[sp].d(G)[sp].[moe](T)p.[moe](A)[sp].[moe](G)}$$$$ (last 3' nucleoside missing)”: 4 score 0-7; “RNA1{[moe](G)[sp].[moe](T)p.[moe](G)p.[moe]([m5C])p.[moe](A)p.[moe](T)p.d(A)[sp].d([m5C])[sp].d([m5C])[sp].d([m5C])[sp].d(A)[sp].d(G)[sp].d(G)[sp].d(G)[sp].d(T)[sp].d(A)[sp].[moe](G)p.[moe](G)[sp].[moe](A)}$$$$ (last 3' nucleoside missing)”: 1 score 0-7.
